± gives the expanded uncertainty stated by the source.
Details: 3000 kPa, Coriolis flow meter

CCCCCCCCCC [decane]
Details | mass density [kg/m3]
285.3 K, Liquid | 736.8 ± 15
313.1 K, Liquid | 716.24 ± 14
343.4 K, Liquid | 706.6 ± 14
354.5 K, Liquid | 682.3 ± 15
373.3 K, Liquid | 660.16 ± 13
423.7 K, Liquid | 630.21 ± 13
475.8 K, Liquid | 588.61 ± 12
523.2 K, Liquid | 547.44 ± 12
571.8 K, Liquid | 487.16 ± 14
624.2 K, Liquid | 365.9 ± 16
673.2 K, Gas | 143.74 ± 8.3
700.3 K, Gas | 112.44 ± 7
723 K, Gas | 96.77 ± 5.3

— the NIST ThermoML archive (doi:10.1021/acs.jced.7b01097)
